These results are taken from ChEMBL document CHEMBL1140728, “Synthesis and biological activity of human neuropeptide S analogues modified in position 2” (J Med Chem, 2008).

Non-standard residues stand in square brackets, D forms with d. Residues, ends and D or L forms follow the SMILES beside them. Dip = N[C@H](C(=O)O)C(c1ccccc1)c1ccccc1; β3hF = N[C@H](CC(=O)O)Cc1ccccc1; Phg = N[C@H](C(=O)O)c1ccccc1

For the assay, the target named is T1, Neuropeptide S receptor (Mus musculus) (UniProt Q8BZP8).
T1 sequence (whole entry): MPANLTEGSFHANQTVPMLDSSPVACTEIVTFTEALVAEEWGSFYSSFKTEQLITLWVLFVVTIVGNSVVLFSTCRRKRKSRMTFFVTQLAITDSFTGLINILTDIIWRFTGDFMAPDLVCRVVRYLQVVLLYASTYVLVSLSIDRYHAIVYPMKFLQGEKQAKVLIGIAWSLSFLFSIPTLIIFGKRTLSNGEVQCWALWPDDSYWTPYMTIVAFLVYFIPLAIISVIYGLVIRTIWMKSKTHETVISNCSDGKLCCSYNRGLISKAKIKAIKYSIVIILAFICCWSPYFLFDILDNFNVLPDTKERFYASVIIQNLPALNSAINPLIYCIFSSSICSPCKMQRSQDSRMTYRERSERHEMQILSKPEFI
As to the kind of experiment: Agonist activity at mouse recombinant NPS receptor expressed in HEK293 cells assessed as intracellular calcium mobilization at 10 umol. Type of assay: functional, cell-based. (In general: Calcium flux is commonly read through the fluorescence of an indicator in the cells.)
As to `CSCC[C@H](NC(=O)CNC(=O)[C@@H](NC(=O)CNC(=O)[C@@H](NC(=O)CNC(=O)[C@H](CC(N)=O)NC(=O)[C@H](CCCNC(=N)N)NC(=O)[C@@H](NC(=O)[C@@H](N)CO)C(c1ccccc1)c1ccccc1)C(C)C)[C@@H](C)O)C(=O)N[C@@H](CCCCN)C(=O)N[C@@H](CCCCN)C(=O)N[C@H](C(=O)N[C@@H](CO)C(=O)N[C@@H](Cc1ccccc1)C(=O)N[C@@H](CCC(N)=O)C(=O)N[C@@H](CCCNC(=N)N)C(=O)N[C@@H](C)C(=O)N[C@@H](CCCCN)C(=O)N[C@@H](CO)C(=O)O)[C@@H](C)O` (H-S[Dip]RNGVGTGMKKTSFQRAKS-OH), the Activity is 130%.
As to `CSCC[C@H](NC(=O)CNC(=O)[C@@H](NC(=O)CNC(=O)[C@@H](NC(=O)CNC(=O)[C@H](CC(N)=O)NC(=O)[C@H](CCCNC(=N)N)NC(=O)[C@@H](NC(=O)[C@@H](N)CO)c1ccccc1)C(C)C)[C@@H](C)O)C(=O)N[C@@H](CCCCN)C(=O)N[C@@H](CCCCN)C(=O)N[C@H](C(=O)N[C@@H](CO)C(=O)N[C@@H](Cc1ccccc1)C(=O)N[C@@H](CCC(N)=O)C(=O)N[C@@H](CCCNC(=N)N)C(=O)N[C@@H](C)C(=O)N[C@@H](CCCCN)C(=O)N[C@@H](CO)C(=O)O)[C@@H](C)O` (H-S[Phg]RNGVGTGMKKTSFQRAKS-OH), the Activity worked out at 141%.
`CSCC[C@H](NC(=O)CNC(=O)[C@@H](NC(=O)CNC(=O)[C@@H](NC(=O)CNC(=O)[C@H](CC(N)=O)NC(=O)[C@H](CCCNC(=N)N)NC(=O)C[C@H](Cc1ccccc1)NC(=O)[C@@H](N)CO)C(C)C)[C@@H](C)O)C(=O)N[C@@H](CCCCN)C(=O)N[C@@H](CCCCN)C(=O)N[C@H](C(=O)N[C@@H](CO)C(=O)N[C@@H](Cc1ccccc1)C(=O)N[C@@H](CCC(N)=O)C(=O)N[C@@H](CCCNC(=N)N)C(=O)N[C@@H](C)C(=O)N[C@@H](CCCCN)C(=O)N[C@@H](CO)C(=O)O)[C@@H](C)O` (H-S[β3hF]RNGVGTGMKKTSFQRAKS-OH): the Activity was determined as 177%.
In the case of H-SDRNGVGTGMKKTSFQRAKS-OH it was 39%; in that of H-SERNGVGTGMKKTSFQRAKS-OH, 170%.
As to H-SKRNGVGTGMKKTSFQRAKS-OH, the Activity is 103%.
Consider H-SNRNGVGTGMKKTSFQRAKS-OH, for which the Activity is 49%.
With H-SQRNGVGTGMKKTSFQRAKS-OH the figure was 54%.
With H-STRNGVGTGMKKTSFQRAKS-OH the figure was 114%.
